Marks after values point to notes of the source that are not given here. Where a SMILES comes first, the peptide text is derived from it. The star is where a group is joined. Myristoyl = CCCCCCCCCCCCCC(=O)*
What was measured:
[1] = test system: methacholine-induced mucin hypersecretion; assay: Methacholine-induced mucin hypersecretion in ovalbumin-sensitized mouse model of asthma, BAL mucin ELISA (BP2 mice); assay type: in vivo
Description: (§1) Experiments were designed to test whether or not the MANS peptide and other test peptides related thereto inhibit hypersecretion of mucin in murine airway in vivo. The ovalbumin-sensitized mouse model of allergic inflammation and asthma used in these studies was as described by Singer et al. (2004), supra. As a negative control, a control peptide containing an N-terminal myristoyl group and the same amino acids as MANS peptide but arranged in random order (i.e., the random N-terminal sequence, RNS, myristoyl-peptide 232) was tested alongside the proposed active peptides. BP2 mice, aged 6-8 wks, were immunized subcutaneously twice at weekly intervals with 1 μg of ovalbumin. After 14 days of sensitization, the animals were exposed to aerosolized ovalbumin, which causes a pronounced goblet cell hyperplasia after 72 hours. At the 72 hr time point, the secretagogue, methacholine ([…]) was delivered using a Buxco system nebulizer providing a fine aerosol for 90 seconds. Fifteen min prior to the secretagogue challenge, 50 μL of the test peptide, at 3 different concentrations (10 μM, 100 μM, or 140 μM), was administered by intratracheal route. The RNS peptide was tested at the highest dose level only (50 μL of 140 μM solution). […] Each experiment was carried out in 6 mice per point, and each set of experiments was repeated 3 times. To test strain-to-strain variations, the above experiment was repeated in Balb/C mice under similar protocol. Both stimulated and unstimulated mucin secretion, in mice treated with […] sodium acetate (data not shown), were identical to saline control. Following the methacholine challenge, the animals were sacrificed and bronchoalveolar lavage (BAL) performed on 6 animals per group for analysis of secreted mucin.
(§2) Mice were sacrificed by cervical dislocation, followed by rapid exposure of the trachea and insertion of a cannula through a small incision. Bronchoalveolar lavage (BAL) fluid was collected with 0.5 ml followed by 3×1 ml PBS containing PMSF (5 mM), EDTA (5 mM), and DTT (5 mM). BAL fluid was separated into cell-free and cell fractions via brief centrifugation prior to any analyses being performed. The cell-free supernatants were analyzed for the presence of mucin via an ELISA method using anti-mucin antibodies shown to react with mouse mucin. Specifically, a mouse anti-MUC5AC antibody that recognizes the carbohydrate portion of secreted mucin was used in these assays. Data generated from each BAL sample were normalized to total protein as determined by Bradford assay. Mucin content was expressed as the value obtained with the anti-mucin antibody minus that obtained with the non-immune control antibody. All ELISA data were statistically examined using a one-way ANOVA.

[2] = test system: methacholine-induced mucin hypersecretion; assay: Duration of action of test peptides in a murine model of asthma; assay type: in vivo; conditions: Balb/C mice
Description: as §1, §2
Experiments were designed to determine the duration of action of test peptides in a murine model of asthma. As described in Method 1A, Balb/C mice were immunized with ovalbumin. After 14 days, the animals were challenged with aerosolized ovalbumin. After 72 hours the secretagogue, methacholine was delivered by aerosolization. The test peptides ([…] of 100 µM solution) were administered by intratracheal route 30 min, 60 min, or 120 min prior to methacholine challenge. The animals were sacrificed and BAL performed for analysis of secreted mucin The results of this experiment are given in Table VI.

HBE1 cells = assay: PMA-induced mucin hypersecretion in human bronchial epithelial cells (air/liquid interface, MUC5A ELISA); assay type: cell-based; conditions: for Block of PMA-induced increase in mucin secretion: pretreatment with 25 μM peptide
Experimental: HBE1 is a papilloma virus-transformed human bronchial epithelial cell line capable of mucin secretion when cultured in air/liquid interface. HBE1 cells were cultured in the air/liquid interface as described previously (Li et al, J. Biol. Chem., volume 276, pp 40982-40990, 2001). Briefly, HBE1 cells were cultured in air/liquid interface by seeding an appropriate number of cells in 12-well Transwell clear culture inserts (Costar, Cambridge, Mass.) that were thinly coated with rat tail collagen, type I (Collaborative Biomedical, Bedford, Mass.). Cells were initially cultured submerged in medium in a humidified 95% air, 5% CO2 environment for 5-7 days until nearly confluent. At that time, the air/liquid interface was created by removing the apical medium and feeding cells basalaterally. Medium was renewed daily thereafter. Cells were cultured for an additional 14 days to allow full differentiation. The accumulated mucin at the apical surface of the cells was removed by washing with phosphate-buffered saline, pH 7.2. To collect the baseline mucin secretion, cells were incubated for 30 min with medium alone and secreted mucin in the apical medium was collected, and quantitated by ELISA. To determine the mucin hypersecretion induced by a mucin secretagogue, cells were exposed to medium containing 0.5 μM phorbol myristate acetate, (PMA) for 30 min. and mucin was collected and quantitated by ELISA. […] Six wells were used for each test peptides and for each control. Secreted mucin in the apical medium was collected and quantitated by sandwich ELISA method using alkaline phosphatase-conjugated mucin (MUC5A) specific antibody (Zymed Laboratories, San Francisco, Calif.).

nasal mucus secretion = assay: Mucus secretion in upper respiratory tract of primates (nasal lavage, ELISA); assay type: in vivo; conditions: rhesus monkeys; 2.0 mL of 140 μM solution in right nostril; nasal lavage 1 hour after treatment
Description: The purpose of the experiment was to determine the ability of MANS peptide to inhibit mucus secretion in the upper respiratory tract of healthy adult rhesus monkeys. The test used is a standard method for evaluation of nasal secretory activity, and non-human primates typically provide a good correlation to activity in man.
A total of 17 healthy young adult male rhesus monkeys without any prior history of rhinitis were used for the experiment. None of the monkeys had rhinitis before or after the study. The nasal mucus secretion of each monkey was measured in its left nostril prior to any treatment. This value is considered 100% mucus secretion. The monkeys were then randomly divided into the following 4 groups: • Group 1: Normal saline, control (n=3); • Group 2: Sodium acetate, solvent control (n=4); • Group 3: RNS peptide, negative control (n=5); and • Group 4: MANS peptide, test peptide (n=5).
Saline was placed in the left nostril of all 17 animals prior to any treatment. The right nostrils were treated with 2.0 mL of either saline, sodium acetate, RNS peptide or the MANS peptide. Thus, each animal had its own internal control. Nasal lavage was performed on both nostrils of each animal 1 hour after the treatment with the test articles. All lavages were immediately frozen at −80° C. and analyzed for mucus content by ELISA. […]

[3] = test system: methacholine-induced mucin hypersecretion; assay: Methacholine-induced mucin hypersecretion in ovalbumin-sensitized mouse model of asthma, BAL mucin ELISA (Balb/C mice); assay type: in vivo; conditions: for Mucin Secretion % control: peptides at 100 μM; for Mucin Secretion % of control: Table IV, peptide 100 μM
Procedure, shortened: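 BP2 or Balb/C mice immunized s.c. twice weekly with 1 μg ovalbumin, aerosol ovalbumin challenge after 14 days, then aerosolized methacholine 72 h later. Anti-MUC5AC ELISA on cell-free BAL, minus non-immune antibody signal, normalized to Bradford protein; 6 mice per group.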

[4] = Qualitative solubility of test peptides in 0.5 N saline; assay type: physicochemical; conditions: pH 6.5, 20° C. (table title)
Procedure, shortened: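 Weighed peptide (1 to 5 mg) titrated with 25 μL aliquots of 0.5 N saline, pH 6.5, at 25° C until dissolution judged visually. Solubility calculated from volume needed; complete dissolution in first aliquot reported as greater than, non-dissolution as less than, the calculated value.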

[5] = Solubility in sodium acetate, pH 7; assay type: physicochemical; conditions: 120 min sodium acetate, pH 7 (so in the source)
[6] = peptide intratracheal 30 min prior to methacholine challenge
[7] = peptide intratracheal 60 min prior to methacholine challenge
[8] = peptide intratracheal 120 min prior to methacholine challenge
[9] = Table II, 50 μL intratracheal 15 min before methacholine

CCCCCCCCCCCCCC(=O)NCC(=O)N[C@@H](C)C(=O)N[C@@H](CCC(N)=O)C(=O)N[C@@H](Cc1ccccc1)C(=O)N[C@@H](CO)C(=O)N[C@@H](CCCCN)C(=O)N[C@H](C(=O)N[C@@H](C)C(=O)N[C@@H](C)C(=O)N[C@@H](CCCCN)C(=O)NCC(=O)N[C@@H](CCC(=O)O)C(=O)N[C@@H](C)C(=O)N[C@@H](C)C(=O)N[C@@H](C)C(=O)N[C@@H](CCC(=O)O)C(=O)N[C@@H](CCCNC(=N)N)C(=O)N1CCC[C@H]1C(=O)NCC(=O)N[C@@H](CCC(=O)O)C(=O)N[C@@H](C)C(=O)N[C@@H](C)C(=O)N[C@H](C(=O)N[C@@H](C)C(=O)O)C(C)C)[C@@H](C)O [myr-peptide 1, reference compound] (Myristoyl-GAQFSKTAAKGEAAAERPGEAAVA-OH)
Mucin Secretion % of control ([1]; peptide 10 μM): 35 % of Control
Mucin Secretion % of control ([1]; peptide 100 μM): 12 % of Control
Mucin Secretion % of control ([1]; peptide 140 μM): 8 % of Control
Duration of action, mucin secretion (% of Control) [2, 6]: 7 % of Control
Duration of action, mucin secretion (% of Control) [2, 7]: 44 % of Control
Duration of action, mucin secretion (% of Control) [2, 8]: 50 % of Control
Block of PMA-induced increase in mucin secretion (HBE1 cells; then 0.5 μM PMA): 100%
Inhibition of mucus secretion (nasal mucus secretion): ~75%
Mucin Secretion % control [3, 9]: 33.8 % control
Mucin Secretion % control ([3]; Table III): 40 % control
Mucin Secretion % of control [3]: 29** % of control
solubility [4]: < 5 mg/mL
Solubility in sodium acetate [5]: freely soluble

CCCCCCCCCCCCCC(=O)NCC(=O)N[C@H](C(=O)N[C@@H](C)C(=O)N1CCC[C@H]1C(=O)N[C@@H](C)C(=O)N[C@@H](C)C(=O)N[C@@H](CCC(=O)O)C(=O)NCC(=O)N[C@@H](C)C(=O)NCC(=O)N[C@@H](C)C(=O)N[C@@H](CCC(=O)O)C(=O)N[C@H](C(=O)N[C@@H](CCCCN)C(=O)N[C@@H](CCCNC(=N)N)C(=O)N[C@@H](C)C(=O)N[C@@H](CO)C(=O)N[C@@H](C)C(=O)N[C@@H](CCC(=O)O)C(=O)N[C@@H](C)C(=O)N[C@@H](CCCCN)C(=O)N[C@@H](CCC(N)=O)C(=O)N[C@@H](C)C(=O)N[C@@H](Cc1ccccc1)C(=O)O)C(C)C)[C@@H](C)O [myr-peptide 232, reference compound] (Myristoyl-GTAPAAEGAGAEVKRASAEAKQAF-OH)
Mucin Secretion % of control ([1]; peptide 100 μM): 100 % of Control
Mucin Secretion % of control ([1]; peptide 140 μM): 100 % of Control
Duration of action, mucin secretion (% of Control) [2, 6]: 100 % of Control
Duration of action, mucin secretion (% of Control) [2, 7]: 100 % of Control
Duration of action, mucin secretion (% of Control) [2, 8]: 100 % of Control
Inhibition of mucus secretion (nasal mucus secretion): did not have any effect
Mucin Secretion % control [3, 9]: 96 % control
Mucin Secretion % control ([3]; Table III): 81** % control
Mucin Secretion % of control [3]: 108 % of control
solubility [4]: > 15 mg/mL
Solubility in sodium acetate [5]: freely soluble

CC(=O)N[C@@H](C)C(=O)N[C@@H](CCCCN)C(=O)NCC(=O)N[C@@H](CCC(=O)O)C(=O)O [Ac-peptide 219] (Ac-AKGE-OH)
Mucin secretion level below the unstimulated medium control (HBE1 cells; 25 μM peptide, then 0.5 μM PMA): 20%
Block of PMA-induced increase in mucin secretion (HBE1 cells; then 0.5 μM PMA): 100%
solubility [4]: > 200 mg/mL

CCCCCCCCCCCCCC(=O)O[C@@H]1[C@@H](C)[C@@]2(O)[C@@H](C=C(CO)C[C@]3(O)C(=O)C(C)=C[C@@H]23)[C@@H]2C(C)(C)[C@]12OC(C)=O [PMA, phorbol myristate acetate, reference compound]
Increase in mucin secretion (HBE1 cells; 0.5 μM PMA, 30 min): 20%

CC(=O)N[C@@H](C)C(=O)N[C@@H](C)C(=O)NCC(=O)N[C@@H](CCC(=O)O)C(=O)O [Ac-peptide 251] (Ac-AAGE-OH)
Inhibitory effect on PMA-induced increase in mucin secretion (HBE1 cells; peptide concentration not given, 0.5 μM PMA): 6%
solubility [4]: > 200 mg/mL

From patent US9598463B2, “Mucin hypersecretion inhibitors and methods of use” (BIOMARCK PHARMACEUTICALS, LTD., priority 2005, dated 2017)
